Reference: patent publication US9247759B2, “Identification of human T2R receptors that respond to bitter compounds that elicit the bitter taste in compositions, and the use thereof in assays to identify compounds that inhibit (block) bitter taste in compositions and use thereof” (SENOMYX, INC., priority 2007, dated 2016)
Read-outs that look alike come from different tables or passages of the source.

Molecular target: hT2R8 (Homo sapiens (Human), UniProt Q9NYW2)
Test: hT2R8 antagonist high-throughput FLIPR assay, stable cell line with G16g44, agonist andrographolide
Type: cell-based
Procedure, shortened: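 Antagonist screen: compounds co-applied with agonist andrographolide at 200 μM, a dose giving 70–80% of maximal hT2R8 activation. Fluorescence measured by FLIPR in a stable HEK293 line expressing both hT2R8 and the promiscuous G16g44 protein.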

[1] = read-out: IC50 on hT2R8 bitter receptor
[2] = table after Example 10-97, read-out: hT2R8 IC50
[3] = table after Example 12-37, read-out: hT2R8 IC50
[4] = unit uM, read-out: IC50 on hT2R08 bitter receptor

Sequence of hT2R8 (Q9NYW2 whole entry): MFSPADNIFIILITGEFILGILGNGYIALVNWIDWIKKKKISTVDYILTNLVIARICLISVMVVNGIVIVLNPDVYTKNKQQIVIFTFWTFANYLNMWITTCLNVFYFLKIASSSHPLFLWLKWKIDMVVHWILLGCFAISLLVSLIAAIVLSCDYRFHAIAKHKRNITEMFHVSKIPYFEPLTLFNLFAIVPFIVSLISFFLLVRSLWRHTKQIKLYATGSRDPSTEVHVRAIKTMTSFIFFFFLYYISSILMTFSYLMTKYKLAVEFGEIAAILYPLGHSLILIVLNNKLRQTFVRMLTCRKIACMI

| Compound | IC50 [1] [µM] | IC50 (Table A, read-out: hT2R8 IC50) [µM] | other results |
| --- | --- | --- | --- |
| Cc1noc(C)c1Cn1cc(N2C(=O)N(Cc3ccc(C(=O)O)cc3)C(C)(C)C2=O)cn1 [Example 12-89, 4-((3-(1-((3,5-dimethylisoxazol-4-yl)methyl)-1H-pyrazol-4-yl)-5,5-dimethyl-2,4-dioxoimidazolidin-1-yl)methyl)benzoic acid] | – | – | IC50 [3]: 2.31 µM |
| CCC(C)CC(=O)Nc1cnn(Cc2c(C)noc2C)c1 (stereo not shown) [Example 4-60, N-(1-((3,5-dimethylisoxazol-4-yl)methyl)-1H-pyrazol-4-yl)-3-methylpentanamide] | – | 1.94 | – |
| COc1ccc(OC)c(C(=O)Nc2cnn(Cc3c(C)noc3C)c2)c1 [Example 4-9, N-(1-((3,5-dimethylisoxazol-4-yl)methyl)-1H-pyrazol-4-yl)-2,5-dimethoxybenzamide] | 0.17 | – | – |
| Cc1noc(C)c1Cn1cc(N(C)C(=O)C2(c3ccccc3)CC2)cn1 [Example 4-66, N-(1-((3,5-dimethylisoxazol-4-yl)methyl)-1H-pyrazol-4-yl)-N-methyl-1-phenylcyclopropanecarboxamide] | – | 8.23 | – |
| COc1cccc(C(=O)Nc2cnn(Cc3c(C)noc3C)c2)c1O [Example 4-71, N-(1-((3,5-dimethylisoxazol-4-yl)methyl)-1H-pyrazol-4-yl)-2-hydroxy-3-methoxybenzamide] | – | 2.9 | – |
| Cc1noc(C)c1Cn1cc(NC(=O)C2CCCCC2)cn1 [Example 4-61, N-(1-((3,5-dimethylisoxazol-4-yl)methyl)-1H-pyrazol-4-yl)cyclohexanecarboxamide] | – | 2.2 | – |
| Cc1noc(C)c1Cn1cc(-n2c(=O)[nH]c3ccccc3c2=O)cn1 [Example 9-4, 3-(1-((3,5-dimethylisoxazol-4-yl)methyl)-1H-pyrazol-4-yl)quinazoline-2,4(1H,3H)-dione] | 1.5 | – | – |
| Cc1noc(C)c1Cn1cc(NC(=S)Nc2ccccc2)cn1 [Example 4-112, 1-(1-((3,5-dimethylisoxazol-4-yl)methyl)-1H-pyrazol-4-yl)-3-phenylthiourea] | – | 2.49 | – |
| COc1ccc(CC(=O)Nc2cnn(Cc3c(C)noc3C)c2)cc1O [Example 4-70, N-(1-((3,5-dimethylisoxazol-4-yl)methyl)-1H-pyrazol-4-yl)-2-(3-hydroxy-4-methoxyphenyl)acetamide] | – | 3.1 | – |
| Cc1noc(C)c1Cn1cc(NC(=O)c2ccc3nccnc3c2)cn1 [Example 4-82, N-(1-((3,5-dimethylisoxazol-4-yl)methyl)-1H-pyrazol-4-yl)quinoxaline-6-carboxamide] | – | 0.8 | – |
| 1-((1,3-dimethyl-1H-pyrazol-4-yl)methyl)-3-(1-((3,5-dimethylisoxazol-4-yl)methyl)-1H-pyrazol-4-yl) imidazolidine-2,4-dione [Example 10-90] | – | – | IC50 [2]: 0.215 µM |
| COc1ccc(CC(=O)Nc2cnn(Cc3c(C)noc3C)c2)cc1 [Example 4-33, N-(1-((3,5-dimethylisoxazol-4-yl)methyl)-1H-pyrazol-4-yl)-2-(4-methoxyphenyl)acetamide] | – | 0.99 | – |
| COc1cc(OC)cc(C(=O)Nc2cnn(Cc3c(C)noc3C)c2)c1 [Example 4-18, N-(1-((3,5-dimethylisoxazol-4-yl)methyl)-1H-pyrazol-4-yl)-3,5-dimethoxybenzamide] | – | 0.28 | – |
| COc1ccccc1CCN1C(=O)N(c2cnn(Cc3c(C)noc3C)c2)C(=O)C1(C)C [Example 12-58, 3-(1-((3,5-dimethylisoxazol-4-yl)methyl)-1H-pyrazol-4-yl)-1-(2-methoxyphenethyl)-5,5-dimethylimidazolidine-2,4-dione] | – | – | IC50 [3]: 0.24 µM |
| Cc1noc(C)c1Cn1cc(N2C(=O)CN(Cc3cc(C)n(C)n3)C2=O)cn1 [Example 10-28, 1-((1,5-dimethyl-1H-pyrazol-3-yl)methyl)-3-(1-((3,5-dimethylisoxazol-4-yl)methyl)-1H-pyrazol-4-yl) imidazolidine-2,4-dione] | – | – | IC50 [2]: 0.322 µM; IC50 [4]: 0.3 µM |
| Cc1noc(C)c1Cn1cc(N2C(=O)N(CCc3ccccc3F)C(C)(C)C2=O)cn1 [Example 12-53, 3-(1-((3,5-dimethylisoxazol-4-yl)methyl)-1H-pyrazol-4-yl)-1-(2-fluorophenethyl)-5,5-dimethylimidazolidine-2,4-dione] | – | – | IC50 [3]: 0.2 µM |
| Cc1noc(C)c1Cn1cc(NC(=S)Nc2ccccc2F)cn1 [Example 4-105, 1-(1-((3,5-dimethylisoxazol-4-yl)methyl)-1H-pyrazol-4-yl)-3-(2-fluorophenyl)thiourea] | – | 1.63 | – |
| COc1cc(C(=O)Nc2cnn(Cc3c(C)noc3C)c2)cc2c1OCO2 [Example 4-92, N-(1-((3,5-dimethylisoxazol-4-yl)methyl)-1H-pyrazol-4-yl)-7-methoxybenzo[d][1,3]dioxole-5-carboxamide] | 0.7 | – | – |
| Cc1noc(C)c1Cn1cc(N2C(=O)CN(Cc3ccc4c(c3)OCO4)C2=O)cn1 [Example 10-36, 1-(benzo[d][1,3]dioxol-5-ylmethyl)-3-(1-((3,5-dimethylisoxazol-4-yl)methyl)-1H-pyrazol-4-yl)imidazolidine-2,4-dione] | – | – | IC50 [2]: 0.053 µM; IC50 [4]: 0.07 µM |

The next lines start with results.

| IC50 [1] [µM] | IC50 (Table A, read-out: hT2R8 IC50) [µM] | Compound | other results |
| --- | --- | --- | --- |
| 0.76 | – | Cc1noc(C)c1Cn1cc(N2C(=O)NC(COCc3ccccc3)C2=O)cn1 (stereo not shown) [Example 10-47, 5-(benzyloxymethyl)-3-(1-((3,5-dimethylisoxazol-4-yl)methyl)-1H-pyrazol-4-yl)imidazolidine-2,4-dione] | IC50 [2]: 0.766 µM |
| 0.96 | – | Cc1noc(C)c1Cn1cc(N2C(=O)NC(CC3CCCCC3)C2=O)cn1 (stereo not shown) [Example 10-57, 5-(cyclohexylmethyl)-3-(1-((3,5-dimethylisoxazol-4-yl)methyl)-1H-pyrazol-4-yl)imidazolidine-2,4-dione] | IC50 [2]: 0.962 µM |
| 0.02 | – | COCn1c(=O)n(-c2cnn(Cc3c(C)noc3C)c2)c(=O)n1Cc1ccccc1 [Example 10-89, 1-benzyl-4-(1-((3,5-dimethylisoxazol-4-yl)methyl)-1H-pyrazol-4-yl)-2-(methoxymethyl)-1,2,4-triazolidine-3,5-dione] | IC50 [2]: 0.024 µM |
| 0.03 | – | COCc1cccc(CN2C(=O)N(c3cnn(Cc4c(C)noc4C)c3)C(=O)C23CC3)c1 [Example 12-14, 6-(1-((3,5-dimethylisoxazol-4-yl)methyl)-1H-pyrazol-4-yl)-4-(3-(methoxymethyl)benzyl)-4,6-diazaspiro[2.4]heptane-5,7-dione] | – |
| 0.07 | – | COc1cccc(CN2CC(=O)N(c3cnn(Cc4c(C)noc4C)c3)C2=O)c1 [Example 10-6, 3-(1-((3,5-dimethylisoxazol-4-yl)methyl)-1H-pyrazol-4-yl)-1-(3-methoxybenzyl)imidazolidine-2,4-dione] | IC50 [2]: 0.073 µM |
| 0.03 | – | Cc1noc(C)c1Cn1cc(N2C(=O)N(Cc3cccc(O)c3)C3(CCC3)C2=O)cn1 [Example 12-4, 7-(1-((3,5-dimethylisoxazol-4-yl)methyl)-1H-pyrazol-4-yl)-5-(3-hydroxybenzyl)-5,7-diazaspiro[3.4]octane-6,8-dione] | – |
| 0.65 | – | Cc1noc(C)c1Cn1cc(N2C(=O)[C@H](C(C)C)N(Cc3cccc(O)c3)C2=O)cn1 [Example 12-8, (S)-3-(1-((3,5-dimethylisoxazol-4-yl)methyl)-1H-pyrazol-4-yl)-1-(3-hydroxybenzyl)-5-isopropylimidazolidine-2,4-dione] | – |
| 1.3 | – | Cc1noc(C)c1Cn1cc(N2C(=O)NC(CC(=O)NCc3ccccc3)C2=O)cn1 (stereo not shown) [Example 10-49, N-benzyl-2-(1-(1-((3,5-dimethylisoxazol-4-yl)methyl)-1H-pyrazol-4-yl)-2,5-dioxoimidazolidin-4-yl)acetamide] | IC50 [2]: 1.33 µM |
